Patent publication US20030114482A1, “Use of retinoid receptor antagonists or agonists in the treatment of cartilage and bone pathologies” (priority 1999, published 2003)

Key:
[1] = system: RARE/β-galactosidase reporter construct in F9 teratocarcinoma cell line; experiment: F9 teratocarcinoma RARE/β-galactosidase reporter bioassay; format: cell-based
Description: The β-gal assay consists of an F9 teratocarcinoma cell line stably transfected with a reporter construct which contains a 64 bp retinoic acid-response element (RARE) from the promoter region of the human RARβ gene (Ellis et al., Nature 343, 377-381 (1990)) placed immediately upstream of the E. coli lacZ gene. […] Cells were maintained on gelatin-coated dishes in modified L15 CO2 tissue culture medium (Specialty Media, Lavallette, N.J.) supplemented with 20% fetal calf serum and 0.8 mg/ml G418 (complete medium), and were used when 80-90% confluent.
To prepare tissue extracts, tissues were surgically isolated from Day 10 chick embryos and included. The metaphyseal-diaphyseal portion of cartilaginous humerus and tibia from which adherent perichondral tissues were carefully removed, liver, brain, gizzard and heart. During isolation, all tissues were kept in saline on ice under yellow safety light conditions to protect the retinoids. […]
Briefly, cultures were fixed with 0.1% glutaraldehyde in 0.1 M phosphate buffer pH 7.0 for 15 min at room temperature. […] After rinsing again, cultures were extracted with 0.2 ml of DMSO and absorbance of the extracted material was determined at 655 nm using a Perkin-Elmer spectrophotometer. […]

[2] = system: caudal sternal chondrocytes; experiment: Cultured immature caudal sternal chondrocytes, Northern blot of type X collagen; format: cell-based, chick
Description: (§1) Cell populations rich in prehypertrophic and early hypertrophic chondrocytes were isolated from the cephalic core region of Day 17-18 chick embryo sterna, while immature chondrocytes were isolated from the caudal sternal region (Gibson and Flint, J. Cell Biol. 101, 277-284 (1985); Pacifici et al., Exp. Cell Res. 195, 38-46 (1991); Iwamoto et al., Exp. Cell Res. 207, 413-420 (1993b)). The dissected cephalic and caudal tissues were incubated for 1 hr at 37° C. in saline containing 0.1% type 1-S collagenase (Sigma Chemical Co., St. Louis, Mo.); the cells released after this incubation were discarded as they consisted mainly of perichondrial and blood cells. The remaining tissue was incubated in a fresh mixture of 0.25% trypsin and 0.1% collagenase for 3 hr at which point it was completely digested. The freshly isolated chondrocytes were plated at a density of 2×10^5 cells/well in 12-well plates, 1×10^6 cells/60 mm dish or 3×10^6 cells/100 mm dish. The cephalic core chondrocytes were grown continuously, without subculturing, for 2 to 3 weeks in monolayer. During the first 2 days, cultures received 4 U/ml of testicular hyaluronidase to minimize cell detachment (Leboy et al., J. Biol. Chem. 264, 17281-17286 (1989)), and cultures became confluent by 2 weeks. The caudal immature chondrocytes were first grown for 5 days at which point floating immature chondrocytes were separated from attached contaminating fibroblastic cells. The floating cells were trypsinized and replated in secondary cultures in the presence of hyaluronidase to increase cell attachment. Cultures were fed every other day with Dulbecco's modified high-glucose Eagle's medium (GIBCO BRL, Gaithersburg, Md.) containing 10% defined fetal calf serum (Hyclone, Logan, Utah), 2 mM L-glutamine, and 50 U/ml penicillin and streptomycin (Pacifici et al., Exp. Cell Res. 195, 38-46 (1991)). When indicated, cultures were treated with all-trans-RA (Sigma) or combinations of all-trans-RA and Ro 41-5253. […]

[3] = system: cephalic core sternal chondrocytes; experiment: Cultured cephalic core sternal chondrocytes, alkaline phosphatase and type X collagen gene expression; format: cell-based, chick
Description: as §1, with “41-5253. Stock solutions of these retinoids were prepared in DMSO and were diluted into working solutions in 95% ethanol; control dishes received an equivalent amount of vehicle without retinoids. To analyze mineralization, cephalic sternal control and retinoid-treated cultures were supplemented with 3 mM β-glycerophosphate to serve as a phosphate source. During these various regimens, medium was changed daily. To localize calcium deposits, the cell layers were stained with 0.5% alizarin red S solution, pH 4.0, for 5 min at room temperature. In experiments in which cultures were treated for 2, 4 or 6 days, retinoid treatments were initiated so that all cultures (including control cultures) were harvested simultaneously.” for “41-5253.”

[4] = system: cephalic core sternal chondrocytes; experiment: Mineralization of cultured cephalic core sternal chondrocytes, alizarin red staining; format: cell-based, chick; conditions: 6 days
Description: as §1

[5] = system: RARE/β-galactosidase reporter construct in F9 teratocarcinoma cell line; conditions: cited from earlier work
[6] = system: humerus development (chondrocyte maturation, endochondral ossification); experiment: Antagonist-filled bead implantation in chick embryo wing bud, humerus development; format: in vivo
Description: This procedure was carried out as described previously (Noji et al., Acta Histochem. Cytochem. 23, 353-366 (1990); Koyama et al., Dev. Dynam. 203, 152-162 (1995)). Briefly, chick embryos or embryo parts were fixed with 4% paraformaldehyde for 4 hr or overnight, embedded in paraffin and sectioned. The 5 μm thick sections were pretreated with 1 μg/ml proteinase K (Sigma, St. Louis, Mo.) in 50 mM Tris, 5 mM EDTA, pH 7.5 at room temperature for 1 min, immediately postfixed in 4% paraformaldehyde buffer for 10 min, and then washed twice in PBS containing 2 mg/ml glycine for 10 min/wash. Sections were treated for 15 min with a freshly prepared solution of 0.25% acetic anhydride in triethanolamine buffer. Sections were hybridized with ^35S-labeled antisense or sense chick cDNA riboprobes (approximately 1×10^6 DPM/section) at 50° C. for 16 hr. After hybridization, slides were washed three times with 2×SSC containing 50% formamide at 50° C. for 20 min/wash, treated with 20 μg/ml RNaseA for 30 min at 37° C., and finally washed three times with 0.1×SSC at 50° C. for 10 min/wash. Sections were coated with Kodak NTB3 emulsion diluted 1:1 with water, exposed for 7 days, and developed with Kodak D19 for 3 min at 20° C. After staining with hematoxylin and eosin, slides were analyzed with a Nikon microscope using bright and dark field optics.
This range of concentrations was based on previous studies (see, for example, Lu et al., Development 124, 1643-1651 (1997)). Antagonist solutions were prepared in DMSO and used under yellow light conditions; control beads were soaked in DMSO alone. Beads were then dipped very briefly in phenol red-containing saline (HBSS) so that they were more readily visible during implantation.
Antagonist-containing or control beads were implanted in the wing bud of stage 21-22 (Day 3-3.5) or stage 27-28 (Day 5.5) chick embryos (Hamburger and Hamilton, J. Morphol. 88, 49-92 (1951)); contralateral wing bud served as control. A small window was opened in the egg shell and a small incision was made on the antero-dorsal proximal portion of the bud. One bead or several beads were then placed in the vicinity of the prospective humerus as specified below, and eggs were sealed and returned to the incubator. On the day of analysis, embryos were sacrificed by decapitation, and control and operated wings were examined by microscopy, using a Nikon SMZ-U dissecting photomicroscope, and humerus length was measured micrometrically. Because length of control humeri varied slightly from embryo to embryo, possibly reflecting slight differences in age, humeri were considered affected by antagonist treatment only if their length was shortened at least 25% over control value. Companion control and antagonist-treated limbs were processed for histology and in situ hybridization using tissue sections.
Having shown that RAR gene expression changes during chondrocyte maturation and that the cartilaginous elements as well as their surrounding perichondrial tissues contain endogenous retinoids, experiments were carried out to determine what roles the RARs and their ligands may play during chondrocyte maturation and skeletogenesis (see Example I, Antagonist Treatment). To approach this question, a bead containing retinoid antagonists was implanted in the vicinity of the prospective humeral mesenchymal condensation in stage 21-22 (Day 3-3.5) chick embryos and determined whether humerus development had been impaired by Day 10 in vivo.

[7] = target: T1, RARγ (Homo sapiens, UniProt P13631); conditions: cited from earlier work
T1 sequence (P13631 1-454): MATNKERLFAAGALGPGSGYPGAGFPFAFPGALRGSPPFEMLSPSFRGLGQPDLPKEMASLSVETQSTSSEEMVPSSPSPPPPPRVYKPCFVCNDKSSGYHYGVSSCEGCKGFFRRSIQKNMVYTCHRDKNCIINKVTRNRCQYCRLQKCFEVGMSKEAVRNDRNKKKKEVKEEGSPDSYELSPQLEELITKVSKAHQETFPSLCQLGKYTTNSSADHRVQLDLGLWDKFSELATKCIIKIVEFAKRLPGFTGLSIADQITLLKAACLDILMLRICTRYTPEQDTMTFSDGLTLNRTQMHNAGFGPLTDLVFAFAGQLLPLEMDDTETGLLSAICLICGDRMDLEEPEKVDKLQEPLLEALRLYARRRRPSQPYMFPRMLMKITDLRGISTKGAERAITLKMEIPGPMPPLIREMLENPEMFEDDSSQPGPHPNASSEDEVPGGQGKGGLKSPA

[8] = system: RARa, β and γ; conditions: cited from earlier work
[9] = target: T1, RARγ; experiment: RAR antagonism, IC50 for RARγ (literature); format: biochemical
[10] = beads implanted Day 5.5, examined Day 8.5

**Q.** Which “β-galactosidase reporter response (histochemical)” value ([1]; 3 nM, 24 hr, positive control) does the source give for CC1=C(/C=C/C(C)=C/C=C/C(C)=C/C(=O)O)C(C)(C)CCC1 [all-trans-RA] here?
**A.** The value was “positive”.

**Q.** What about the “type X collagen transcripts” value ([2]; 50 nM, 2, 4 or 6 days) of the same compound?
**A.** The value was “marked time-dependent increase”.

**Q.** And the “alkaline phosphatase gene expression” value ([3]; 50 nM)?
**A.** The value was “increased dramatically”.

**Q.** And the “type X collagen expression” value ([3]; 50 nM, 6 days of treatment)?
**A.** The value was “essentially eliminated”.

**Q.** And the “mineral deposition (alizarin red)” value ([4]; 25 or 50 nM, with β-glycerophosphate)?
**A.** The value was “abundant alizarin red-stainable mineral”.

**Q.** And the “lowest exogenous concentration to which reporter cells are very sensitive (high expression of β-gal)” value [5]?
**A.** Its value is 10 pM.

**Q.** What does the source list for CCCCCCCOc1cc2c(cc1/C(C)=C/c1ccc(C(=O)O)cc1)C(C)(C)CCS2(=O)=O [Ro 41-5253]?
**A.** humerus shortening versus control contralateral humerus ([6]; bead implanted stage 21-22, Day 10 embryos): about 50%; type X collagen transcripts, antagonist alone ([2]; antagonist alone): did not have major effects; effect on all-trans-RA-induced increase in type X collagen transcripts ([2]; co-treatment 500 nM with 50 nM all-trans-RA): significantly, though not totally, blocked; alkaline phosphatase and type X collagen gene expression, antagonist alone ([3]; antagonist alone): no major effects; effect on all-trans-RA responses of alkaline phosphatase and type X collagen genes ([3]; co-treatment with 50 nM all-trans-RA, Ro 41-5253 at 500 nM): counteracted; mineralization on co-treatment with all-trans-RA ([4]; 500 nM with 25 or 50 nM all-trans-RA): almost no mineralization; mineralization, antagonist alone ([4]; antagonist alone): had no effects; IC50 [7]: 3300 nM; antagonism across RAR isotypes (selectivity in words) [8]: antagonistic effects on all RAR isoforms but preferentially on RARa

**Q.** For CC1=C(/C=C/C(C)=C\C=C\C(C)=C\C(=O)O)C(C)(C)CCC1 [9-cis-RA], which “efficiency of stimulating transcription, fold lower than all-trans-RA” value ([1]; F9 reporter cells, unpublished observations) is on record?
**A.** Its value is 10 fold.

**Q.** With Cc1ccc(C2=CCC(C)(C)c3ccc(C#Cc4ccc(C(=O)O)cc4)cc32)cc1 [AGN 109] as the compound, how does the “fold lower IC50 for RARγ compared to Ro 41-5253” value [9] read?
**A.** The value was roughly 500 fold.

**Q.** And the “embryos with inhibited humerus development” value ([6]; 3-4 beads implanted Day 5.5 (stage 28), examined Day 8.5)?
**A.** The value was 6/7.

**Q.** And the “chondrocyte maturation and endochondral ossification in treated humerus (histology, in situ hybridization)” value ([6]; bead implanted at early stage, Day 10 humeri)?
**A.** The value was “chondrocyte maturation and long bone development are interrupted”.

**Q.** And the “concentration required for high frequency of humeral defects, relative to Ro 41-5253” value ([6]; bead implanted stage 21-22, Day 10)?
**A.** The value was “much lower concentrations”.

**Q.** And the “hypertrophy and RARγ / type X collagen transcripts in treated humeri” value [6, 10]?
**A.** Its value is “had not advanced to the hypertrophic stage and lacked transcripts encoding RARγ and type X collagen”.

**Q.** And the “type II collagen expression in treated humeri (cell viability and differentiated functions)” value [6, 10]?
**A.** Its value is “very strong expression of type II collagen”.

**Q.** And the “delay of humerus development (reversibility)” value ([6]; beads implanted stage 28 (Day 5.5), examined Day 14)?
**A.** The value was “about 5 days”.

**Q.** What about the “inhibition of humerus development” value ([6]; single bead implanted Day 5.5 (stage 28), examined Day 8.5 (5/5)) of the same compound?
**A.** Its value is “not very effective”.

**Q.** And the IC50 [7]?
**A.** Its IC50 is 5 nM.

**Q.** And the “antagonism across RAR isotypes (selectivity in words)” value [8]?
**A.** The value was “inhibits equally well RARa, β and γ”.
